Test results published in EP2368885A1, “Derivatives of phenazine useful to treat cancer” (Université de la Méditerranée (Aix-Marseille II), priority 2010, dated 2011).

Tested on: MiaPaCa-2 cells
Experiment: not given
Conditions: not given

Compound | Cytotoxicity (en %)
CCCCCCCCCCCCCCCC(=O)Oc1cc2nc3ccccc3nc2cc1OC(=O)CCCCCCCCCCCCCCC [compound 7, 2,3-diopalmitoylphenazine] | 50 >X> 40
2-hydroxy-3-ethoxy-7-ethylcarboxyphenazine [compound 5] | X>50%
2,3-dihydroxy-7,8-diamino(Boc)phenazine [compound 13] | 30 >X> 25
2,3-diethoxy-7-ethylcarboxyphenazine [compound 14] | 20 > X > 10

Tested on: MiaPaCa-2 cells
Experiment: MTT colorimetric cytotoxicity assay on pancreatic chemoresistant cancer MiaPaCa-2 cells
Conditions: 48 hours incubation, tested concentration not stated

Compound | Cytotoxicity (en %)
CCCCCCCCCCCCOc1cc2nc3ccc(C(=O)NCCN(C)C)cc3nc2cc1OCCCCCCCCCCCC [compound 4, 2,3-didodecanoxy-7-dimethylaminoethylcarbamoylphenazine] | X > 50%
CCCCCCCCCCCCOc1cc2nc3ccc(C(=O)O)cc3nc2cc1OCCCCCCCCCCCC [compound 1, 2,3-didodecanoxy-7-carboxyphenazine] | X>50%
CCCCCCCCCCCCOc1cc2nc3ccccc3nc2cc1OCCCCCCCCCCCC [compound 3, 2,3-didodecanoxyphenazine] | X>50%
CCCCCCCCCCCCOc1cc2nc3cc(N)c(N)cc3nc2cc1OCCCCCCCCCCCC [compound 2, 2,3-didodecanoxy-7,8-diaminophenazine] | X>50%
